In patent US20210093714A1, “Combination and method for inhibiting the cancer cells” (NATIONAL TAIWAN UNIVERSITY, priority 2013, published 2021):
Residues, ends and D or L forms follow the SMILES beside them. *: point of attachment. Cbz = O=C(OCc1ccccc1)*

How the values were obtained:
EGFR [1] = assay: Western blot of CCN2-induced EGFR degradation; format: cell-based, human; details: CL1-5 with CCN2
Procedure: (§1) Proteins ([…]) were separated by SDS-PAGE and transferred to a polyvinylidene difluoride membrane (Immobilon-P membrane; Millipore) by electrotransfer. The blot was blocked in a solution of 5% skim milk and 0.1% Tween 20 in PBS. Thereafter, membrane-bound proteins were probed with the following primary antibodies: CCN2, DAPK, phosphorylated ERK, ERK-1, phosphorylated Akt, Akt, TrkA, phosphorylated-Src, Src, b-actin, a-tubulin (Santa Cruz Biotechnology), p-EGFR, and EGFR (Cell Signaling Technology, Danvers, MA, USA). The membrane was washed and then incubated with HRP-conjugated secondary antibodies for 30 min. Enhanced chemiluminescence reagents (Amersham Pharmacia Biotech, Piscataway, N.J., USA) were employed to depict the protein bands on membranes. The light was captured on Kodak X-Omat Blue autoradiography film (PerkinElmer Life Sciences, Boston, Mass., USA).
This embodiment focuses on whether CCN2 interacts with EGFR. At first, the effect of MG132 and CCN2 on the degradation of EGFR in the lung adenocarcinoma cell line, CL1-5, and the effect of cycloheximide and CCN2 on the degradation of EGFR in the lung adenocarcinoma cell line, CL1-5,were observed by western blot analysis, the results shown in FIGS. 4A and 4B. […] On the other hand, cycloheximide can gradually promote CCN2-induced EGFR degradation and attenuated the protein signal intensity(Fold) of EGFR (attenuated from 0.74 to 0.39)(as shown in FIG. 4B) with increasing time (0 hours, 12 hours, 24 hours, 48 hours). Thus, CCN2 can destabilize EGFR and enhance the degradation of EGFR.

DAPK = assay: Western blot of DAPK expression; format: cell-based, human; details: CL1-5; PD98059 0, 10, 20 μM; FIG. 6E
Procedure: as §1
This embodiment focuses on the downstream signaling in CCN2-induced anoikis. At first, the effect of DAPK which can up-regulate CCN2 played on CCN2 induced anoikis and metastasis inhibition of lung adenocarcinoma cell lineswas observed by RT-PCR, dual luciferase reporter assay and western blot analysis, the results shown in FIGS. 6A to 6C. […] In addition, in the lung adenocarcinoma cell line, CL1-0/siCCN2, DAPK expression is suppressed, and DAPK expression also be suppressed with increasing dose (0 μg, 1μg, 3μg), (as shown on the top right in the FIG. 6C). Therefore, CCN2 induced DAPK expression in time- and dose-dependent manners.

ERK = assay: Western blot of ERK phosphorylation; format: cell-based, human; details: CL1-5; PD98059 0, 10, 20 μM; FIG. 6E
Procedure: as §1
This embodiment focuses on the effect of CCN2 on the EGFR-induced signaling pathways. At first, the effect of exogenous CCN2(rCCN2) on the MAPK/AKT signaling pathways in the lung adenocarcinoma cell lines, CL1-5, A549 and CL1-0/siCCN2 was observed by western blot analysis, the results shown in FIG. 3A.

[2] = test system: CCN2 transfected lung adenocarcinoma cell line, CL1-5; assay: MTT Assay, chemotherapy drugs on CCN2 transfected CL1-5; format: cell-based, human; details: suspended CCN2 transfected CL1-5; increasing dose 0 to 10 μM; 24 hrs; FIG. 8A
Procedure: First, the effect of CCN2 on the suspended lung adenocarcinoma cell line, CL1-5, treated with chemotherapy was observed by MTT Assay, the results shown in FIG. 8A (Cells were treated for 24 hrs, *P<0.05, **P<0.01). […] In this embodiment, paclitaxel treatment with a concentration between 1 μM and 10 μM is perferred, and 10 μM is most preferable; doxorubicin treatment with a concentration between 0.5 μM and 10 μM is perferred, and 5 μM is most preferable.

EGFR [3] = assay: Immunoprecipitation and in vitro binding assay of CCN2 and EGFR; set-up: species or system human; details: A549; rEGF 20 ng/mL for 24 h; rCCN2 100 ng/mL; FIG. 2C
Procedure: CCN2 transfectants were seeded overnight and incubated in serum-free media for 24 h. For immunoprecipitations, cells were lysed in an RIPA buffer (150 mM NaCl, 50 mM Tris-base, 5 mM EDTA, 1% NP-40, and 0.25% deoxycholate; pH 7.4). Protein concentrations were determined using the BCA protein assay kit (Pierce, Rockford, Ill., USA). Lysate was incubated for 2 h at 4[…] with gentle rotation with rabbit polyclonal antibodies for human EGFR, CCN2, or Src immobilized onto protein A—sepharose beads (Santa Cruz Biotechnology, Santa Cruz, Calif., USA). Beads were washed twice with an IP buffer (137 mM NaCl, 2.7 mM KCl, 1 mM MgCl2, 1 mM CaCl2, 1% NP-40, 10% glycerol, 1 mg/ml bovine serum albumin, and 20 mM Tris; pH 8.0), boiled in a sodium dodecyl sulfate-polyacrylamide gel electrophoresis (SDS-PAGE) sample buffer, and centrifuged (12000×g, 4° C. for 15 min).
The recombinant proteins rCCN2 (BioVendor Com. Heidelberg, Germany), rEGFR, and rEGF (R&D Techne Corporation) ([…]) were added in binding buffer (50 mM sodium phosphate, pH 7.5, 500 mM NaCl, and I% Nonidet P-40) and incubated with gentle rotation at 4° C. for 2 h. Thereafter, crosslinks were reversed by boiling in an SDS-PAGE sample buffer (containing 0.1M dithiothreitol (DTT)) before loading on SDS-PAGE gels for immunoblotting analysis. […]

EGFR [4] = target: T1, EGFR (Homo sapiens, UniProt P00533); assay: FACS and western blot, CCN2 domain responsible for EGFR binding; format: cell-based; details: suspended A549; rCT 100 ng/mL; FIG. 2G
T1 construct: endogenous in cells; host or cells: CL1-5 and A549 human lung adenocarcinoma cell lines
Procedure: After washing, cells were stained with an FITC-labelled goat anti-rabbit secondary antibody (Santa Cruz Biotechnology) for 30 min in the dark. Analysis was then conducted with an FACS Calibur cytometer (Collaborative Biomedical, BD Biosciences).

CC(C)C[C@@H](C=O)NC(=O)[C@H](CC(C)C)NC(=O)[C@H](CC(C)C)NC(=O)OCc1ccccc1 [MG132] (Cbz-Leu-Leu-Leu-aldehyde)
protein signal intensity(Fold) of EGFR (EGFR [1]; MG132, end of time course (24 hours), FIG. 4A): 1.41 Fold | protein signal intensity(Fold) of EGFR (EGFR [1]; MG132, start of time course (0 hours), FIG. 4A): 0.04 Fold

COc1cccc(-c2cc(=O)c3ccccc3o2)c1N [PD98059, reference compound]
DAPK expression (DAPK): gradually increase the DAPK expression | p-ERK (ERK): gradually inhibit p-ERK

C[C@@H]1C[C@@H]([C@H](O)CC2CC(=O)NC(=O)C2)C(=O)[C@@H](C)C1 [cycloheximide]
protein signal intensity(Fold) of EGFR (EGFR [1]; cycloheximide, end of time course (48 hours), FIG. 4B): 0.39 Fold | protein signal intensity(Fold) of EGFR (EGFR [1]; cycloheximide, start of time course (0 hours), FIG. 4B): 0.74 Fold

COc1cccc2c1C(=O)c1c(O)c3c(c(O)c1C2=O)C[C@@](O)(C(=O)CO)C[C@@H]3O[C@H]1C[C@H](N)[C@H](O)[C@H](C)O1 [doxorubicin]
cell apoptosis [2]: increase cell apoptosis more significantly

CC(=O)O[C@H]1C(=O)[C@@]2(C)[C@H]([C@H](OC(=O)c3ccccc3)[C@]3(O)C[C@H](OC(=O)[C@H](O)[C@@H](NC(=O)c4ccccc4)c4ccccc4)C(C)=C1C3(C)C)[C@]1(OC(C)=O)CO[C@@H]1C[C@@H]2O [paclitaxel]
cell apoptosis [2]: increase cell apoptosis more significantly

EGF: EGFR ligand, recombinant protein (R&D Techne Corporation) [reference compound]
effect on physical association between CCN2 and EGFR (EGFR [3]): do not block the physically association between CCN2 and EGFR

B1: rCT: carboxyl-terminal cystine knot (CT) domain of CCN2, CCN2 functional fragment (protein)
chain: KGKKCIRTPKISKPIKFELSGCTSMKTYRAKFCGVCTDGRCCTPHRTTTLPVEFKCPDGEVMKKNMMFIKTCACHYNCPGDNDIFESLYYRKMYGDMA
association of CT-domain of CCN2 with EGFR (EGFR [4]): has association relationship with EGFR
